The test system of series [1] is Aldh3a1. In words: mRNA expression of Aldh3a1 in Hepa1c1c7 cells (real-time PCR). As to conditions: 24 hours, SF 1 or 3 μM, TP-225 0.003 or 0.01 μM, BNF 0.3 or 1 μM. Type of series: cell-based, mouse. A general note: Real-time PCR tracks product formation cycle by cycle.
Method: Total RNA was extracted from Hepa1c1c7 cells that had been exposed to serial dilutions of inducers for 24 h, or from RNA-stabilized tissues (stored in TRizol) from mice, followed by reverse transcription into cDNA. The cDNA was subjected to quantitative real-time PCR analysis by using SYBR Green fluorescence with 7000 Sequence Detection System. […] Relative expressions of individual mRNAs for ALDH were normalized to β-actin as an endogenous control, and the expression rate was calculated using the comparative ΔΔCt method.
The subject of series [2] is ALDH. In words: Total ALDH activity in Hepa1c1c7 cell homogenates (propionaldehyde substrate, fluorimetric). Type of series: cell-based, mouse. On the procedure:
To determine total ALDH activity, Hepa1c1c7 or MEF cells were plated into 6-cm plates at 6.0×10^5 or 1.2×10^6 cells/plate, incubated for 24 h at 37° C. in a 5% CO2 atmosphere, and then treated with serial dilutions of inducers. The inducers were dissolved in acetonitrile or DMSO and added to medium so that final concentrations of the solvents was less than 0.5 or 0.1% v/v, respectively. […] The assay was started by addition of 10 μL of 90 mM propionaldehyde, bringing the total volume to 200 μL. […] Blank reaction rates without propionaldehyde were also determined.

For a further series, the system named is ALDH in Nrf2−/− MEFs. As to conditions: stepwise concentration of SF, 48 h. On the procedure: (§1) All cell lines were grown in 5% CO2 at 37° C. Murine hepatoma cell line, Hepa1c1c7 was cultured in α-MEM supplemented with 10% (v/v) heat inactivated FBS. Mouse embryo fibroblasts (MEFs) derived from day 13.5 embryos of wild-type or Nrf2-knockout C57BL/6 mice were cultured in Iscoves Modified Dulbecco's Medium (with L-glutamine) supplemented with human recombinant epidermal growth factor (10 ng/mL), 1× insulin/transferring/selenium, and 10% (v/v) heat-inactivated FBS.
(§2) To determine total ALDH activity, Hepa1c1c7 or MEF cells were plated into 6-cm plates at 6.0×10^5 or 1.2×10^6 cells/plate, incubated for 24 h at 37° C. in a 5% CO2 atmosphere, and then treated with serial dilutions of inducers. The inducers were dissolved in acetonitrile or DMSO and added to medium so that final concentrations of the solvents was less than 0.5 or 0.1% v/v, respectively. […] ALDH activity was measured fluorimetrically in 96-well plates (white-walled) by modification of the method of Koivula et al. (1975). […] The initial velocity of NADH generation was measured (λex 340 nm and λem 460 nm) at 25° C. for 10 min in a micro-plate fluorometer. Blank reaction rates without propionaldehyde were also determined. The ALDH velocity was normalized to the protein concentration and expressed as a change in fluorescent units per min per mg of protein.

The subject of a further series is ALDH in WT MEFs. As to conditions: stepwise concentration of SF, 48 h. Here is the method: as §1, §2
The subject of series [3] is ALDH. As to conditions: 1 week; for Cytosolic/microsomal and mitochondrial ALDH activities, fold above control: glandular-stomach. Here is the method: (§3) All animal experiments were performed in compliance with National Institute of Health Guidelines and those of Animal Care and Use Committee of the Johns Hopkins University. […] After 1 week on these diets, mice were euthanized and their liver, forestomach, glandular stomach, and upper small intestine were harvested, frozen in liquid nitrogen, and stored at −80° C. until analyzed. A small portion of each tissue was stored in RNA stabilizing solution at 4° C. until total RNA extraction.
To determine total ALDH activity, Hepa1c1c7 or MEF cells were plated into 6-cm plates at 6.0×10^5 or 1.2×10^6 cells/plate, incubated for 24 h at 37° C. in a 5% CO2 atmosphere, and then treated with serial dilutions of inducers. The inducers were dissolved in acetonitrile or DMSO and added to medium so that final concentrations of the solvents was less than 0.5 or 0.1% v/v, respectively. After 48 h of treatment, cells were washed twice with PBS, scraped from the plates, and homogenized in micro-homogenizers at 4° C. The homogenates were centrifuged at 5,000×g for 15 min at 4° C. and the supernatant fractions were collected. ALDH activity was measured fluorimetrically in 96-well plates (white-walled) by modification of the method of Koivula et al. (1975). The assay mixture (190 μL) contained 70 mM sodium pyrophosphate buffer (pH 8.0), 1.67 mM pyrazole, 1.33 mM NAD, and supernatant fraction. The assay was started by addition of 10 μL of 90 mM propionaldehyde, bringing the total volume to 200 μL. The initial velocity of NADH generation was measured (λex 340 nm and λem 460 nm) at 25° C. for 10 min in a micro-plate fluorometer. Blank reaction rates without propionaldehyde were also determined. The ALDH velocity was normalized to the protein concentration and expressed as a change in fluorescent units per min per mg of protein.
To determine ALDH activities of cytosolic/microsomal and mitochondrial fractions individually, cells or harvested tissues were homogenized at 4° C. in 10 mM Tris-HCl (pH 7.4) containing 0.25 M sucrose and 1 mM 2-mercaptoethanol and centrifuged at 750×g for 15 min to remove nuclei and cell debris. Supernatant fractions were then centrifuged twice at 12,000×g for 20 min to obtain the cytosolic/microsomal and the precipitated mitochondrial fractions. Mitochondrial fractions were suspended in 0.25 M sucrose, diluted with one-half volume of 1% sodium bicarbonate containing 1% sodium deoxycholate (w/v), and sonicated in a Branson Sonicator at 4° C. for five (5) 2-minute periods for a total of 10 min before assays.

The next series relates to Aldh1a1. As to conditions: liver, SF diet 1 week. Here is the method:
as §3
(§4) Total RNA was extracted from Hepa1c1c7 cells that had been exposed to serial dilutions of inducers for 24 h, or from RNA-stabilized tissues (stored in TRizol) from mice, followed by reverse transcription into cDNA. The cDNA was subjected to quantitative real-time PCR analysis by using SYBR Green fluorescence with 7000 Sequence Detection System. All primers used in this study were designed based on previous reports. Relative expressions of individual mRNAs for ALDH were normalized to β-actin as an endogenous control, and the expression rate was calculated using the comparative ΔΔCt method.

A further series deals with Aldh2. As to conditions: liver, SF diet 1 week. Here is the method: as §3, §4
Series [4] concerns Aldh3a1. As to conditions: SF diet 1 week. On the procedure:
as §3, §4

The conditions of series [5]: 5 or 20 μmol SF/3 g diet/day, 1 week. On the procedure:
as §3

In series [6] the test system is NQO1. As to conditions: liver, both parts of stomach, upper intestine; high dose 20 μmol SF/3 g diet/day, 1 week. On the procedure:
as §3

For series [7] the following is noted: 20 μmol SF/3 g diet/day 1 week, then 2.0 g/kg ethanol oral. On the procedure: (§5) After fasting overnight, they were gavaged with 35% (v/v) ethanol solution at a dose of 2.0 g/kg. Before, and 0.5, 1, 2, 3, 4, and 6 h after administration of ethanol, 20 μL of blood were collected by nicking the tail vein. The mice were then euthanized and their blood, liver, stomach and upper intestine were collected.
(§6) Blood ethanol and acetaldehyde levels in mice were determined enzymatically by modification of the method of Tottmar et al. (Tottmar 1978). Whole blood samples (20 μL) were obtained by repeated incisions of mouse tail veins. The blood was immediately mixed with 200 μL of 4% (v/v) perchloric acid (PCA) in sealed tubes at 4° C., incubated for 10 min, and then centrifuged at 3000×g for 10 min. The pH values of the supernatant fractions were adjusted to 7.5-8.0 by adding 20 μL of 3 M K2CO3 in new tubes. After removing precipitated KClO4 by centrifugation at 3000×g for 10 min, supernatant fractions were stored in sealed tubes at 4° C. until assayed.

The procedure of series [8]:
as §5, §6
Determination of acetaldehyde was performed in 10 mm quarts fluorescence cuvettes in a final volume of 2.33 mL assay mixture containing of assay mixture containing 50 mM sodium pyrophosphate (pH 8.8), 0.1 mM pyrazole, 0.1 mM NAD and 0.2 units/mL of purified ALDH (potassium activated from baker's yeast) with a luminescence spectrophotometer. Before and 5 min after addition of 170 μL of the supernatant, intensities were monitored (λex: 340 nm and λem: 460 nm). The acetaldehyde level in blood was calculated from change of intensity using acetaldehyde standard curve with range from 1.56 to 50 μM in blood. The standard curve was made by applying serial dilution of acetaldehyde to PCA treatment process same as blood.

The conditions of series [9]: human research studies; cited from earlier work.
A further series deals with glutathione. As to conditions: intake of SF; cited from earlier work.
Series [10] concerns NQO1. As to the kind of experiment: NQO1 activity in Hepa1c1c7 cells (Prochaska assay, menadione substrate). In kind it is cell-based, mouse. As to conditions: 48 h. On the procedure: The lysates of Hepa1c1c7 cells which were plated in 96-well plates at 10^4 cells per well, grown for 24 h, and then exposed to serial dilutions of inducers for 48 h.
Where [11] appears, read: liver, high dose 20 μmol SF/3 g diet/day.

“Also recorded” adds a separate entry of the source. Read-outs that look alike come from different tables or passages of the source.

Take `O=c1cc(-c2ccccc2)oc2ccc3ccccc3c12` [BNF]: the “Aldh3a1 mRNA expression, fold increase” value with Aldh3a1 [1] was about 5 fold.

For the compound `C[S@@+]([O-])CCCCN=C=S` [SF, 1-isothiocyanato-4R-(methylsulfinyl)butane], the “Total ALDH activity, fold above control levels” value in the series with ALDH [2] (3 μM SF, additional 6 hours after first 12 h) was determined as 1.5 fold; in the series on ALDH [2] (3 μM SF, additional 12 hours after first 12 h) it was 1.9 fold; in the series with ALDH [2] (3 μM SF, additional 24 hours after first 12 h) it was 2.1 fold. For the same compound, the “Total ALDH activity vs control” value in the series with ALDH [2] (3 μM SF, first 12 h) was “not increased”. In addition, in the series with ALDH [2] (Hepa1c1c7 cells, 48 hours treatment), the “Concentration at which significant effects on total ALDH activity were observed” value was at least 0.3 µM. Besides, the “Effect on total ALDH activity” value in the series on ALDH [2] (Hepa1c1c7 cells, serial concentrations, 48 h) is “dramatically and dose dependently increased; also recorded: increased total ALDH activity in Hepa1c1c7 cells in a dose dependent manner”; in the series with ALDH in Nrf2−/− MEFs it was “altogether absent”; in the series with ALDH in WT MEFs, “increased in a dose dependent manner”. In the series on ALDH [2] (time course measurement, treatment with SF), the “Treatment time after which total ALDH activity increased” value was 12 to 18 h. Further, the “Aldh3a1 mRNA expression, fold increase” value in the series on Aldh3a1 [1] is reported as about 5 fold. Moreover, the entries for the “Cytosolic/microsomal and mitochondrial ALDH activities, fold above control” value with ALDH [3] ((high) 20 μmol SF/3 g diet/day) and in the series with ALDH [3] ((low) 5 μmol SF/3 g diet/day) were 5.1 fold and 4.1 fold, respectively. In addition, the “Cytosolic/microsomal ALDH activity, fold increase” value in the series on ALDH [3] (setting [11]) came to 1.4 fold. Besides, the “Mitochondrial ALDH activity, fold increase” value in the series with ALDH [3] (setting [11]) was found to be 1.5 fold. Besides, in the series on Aldh1a1, the “Aldh1a1 expression level, fold increase” value is listed as 2.5 fold. In addition, the “Aldh2 expression level, fold increase” value with Aldh2 is listed as 1.8 fold. Further, the “Aldh3a1 expression, fold increase” value in the series with Aldh3a1 [4] (forestomach) turned out to be 3 fold; in the series on Aldh3a1 [4] (glandular stomach), 6.5 fold. Moreover, the “Body weights vs control group” value in [5] is given as “no significant differences”. In addition, the “Food intakes vs control group” value in series [5] is recorded as “no significant differences”. Further, the “NQO1 activity, fold increase compared to control” value with NQO1 [6] is on record as at most 2.2 fold. The “AUC of blood ethanol vs control” value in series [7] is on record as “no significant difference”. The “Effect on blood ethanol level” value in [7] (only in descending phase) was “slightly affected”. Further, the “AUC of blood acetaldehyde” value in [8] (20 μmol SF/3 g diet/day 1 week, then 2.0 g/kg ethanol oral, control 83.8±6.1) amounted to 54.5 ± 5.1 µmol·h/L. The “Effect on blood acetaldehyde levels” value in series [8] (20 μmol SF/3 g/day 1 week, then 2.0 g/kg ethanol oral (FIG. 9)) is listed as “remarkably lowered”. The “Acetaldehyde elimination constant relative to control mice” value in series [8] (SF-fed mice) is “roughly 2 times”. For the same compound, in series [8] (ascending phase, 20 μmol SF/3 g diet/day 1 week, then 2.0 g/kg ethanol oral), the “Prevention of increase in blood acetaldehyde level” value is recorded as 30%. For the same compound, the “Elimination rate constant k of blood acetaldehyde” value in series [8] (first order model, SF fed mice, control 0.21±0.02, p<0.01) came to 0.40 ± 0.03 h⁻¹. Besides, the “Initial blood level C0 of acetaldehyde” value in [8] (first order model, SF fed mice, control 28.62±2.1, NS) was 32.38 ± 2.4 µM. Further, the “Adverse effects on administration” value in [9] is “not shown any significant adverse effects”. Further, the “Glutathione levels in liver” value in the series with glutathione is reported as “increased glutathione levels in liver”.

On to `CC1(C)CC[C@]2(C#N)CC[C@]3(C)[C@H](C(=O)C=C4[C@@]5(C)C=C(C#N)C(=O)C(C)(C)[C@@H]5CC[C@]43C)[C@@H]2C1` [TP-225], for which, in the series on ALDH [2] (Hepa1c1c7 cells, 48 h), the “CD value (concentration required to double the enzyme activity) for induction of ALDH” value is 0.0016 µM. Further, in the series with NQO1 [10], the “CD value (concentration required to double the enzyme activity) for induction of NQO1” value amounted to 0.00038 µM. Further, the “Aldh3a1 mRNA expression, fold increase” value in the series with Aldh3a1 [1] is reported as about 5 fold.

For `Oc1ccc(C=Cc2cc(O)cc(O)c2)cc1` [resveratrol, reference compound], in the series on ALDH [2] (Hepa1c1c7 cells, 48 h), the “CD value (concentration required to double the enzyme activity) for induction of ALDH” value turned out to be 120.7 µM. For the same compound, the “CD value (concentration required to double the enzyme activity) for induction of NQO1” value in the series with NQO1 [10] is over 50 µM.

(Values after US20210401791A1, “METHODS AND COMPOSITIONS FOR REDUCING ALCOHOL TOXICITY” (THE JOHNS HOPKINS UNIVERSITY, priority 2011, published 2021).)
